According to ChEMBL document CHEMBL4706534, “1,2,3-Triazole-containing hybrids with potential antibacterial activity against methicillin-resistant Staphylococcus aureus (MRSA)” (Eur J Med Chem, 2020):
Converted amounts (≈) assume the structure as drawn.

Assays:
Format in all cases: functional
[1] = test system: Staphylococcus aureus; test: Antibacterial activity against Methicillin-resistant Staphylococcus aureus KU60
[2] = test system: Staphylococcus aureus; test: Antibacterial activity against Staphylococcus aureus ATCC 25923 by CLSI-based broth microdilution method
[3] = test system: Staphylococcus aureus; test: Resistance index, ratio of MIC for antibacterial activity against methicillin-resistant Staphylococcus aureus […] to MIC for antibacterial activity against methicillin-sensitive Staphylococcus aureus
[4] = test system: Staphylococcus aureus; test: Antibacterial activity against methicillin-resistant Staphylococcus aureus ATCC 43300 incubated for 18 hrs
[5] = test system: Staphylococcus aureus; test: Resistance index, ratio of MIC for antibacterial activity against Staphylococcus aureus ATCC 43300 incubated for 18 hrs to MIC for antibacterial activity against Staphylococcus aureus ATCC 25923 incubated for 18 hrs
[6] = test system: Staphylococcus aureus; test: Antibacterial activity against Methicillin-resistant Staphylococcus aureus 1 incubated for 16 hrs by agar dilution method
[7] = test system: Staphylococcus aureus; test: Antibacterial activity against Methicillin-resistant Staphylococcus aureus 2 incubated for 16 hrs by agar dilution method
[8] = test system: Enterococcus; test: Antibacterial activity against Vancomycin-resistant enterococcus 2 incubated for 16 hrs by agar dilution method
[9] = test system: Enterococcus; test: Antibacterial activity against Vancomycin-resistant enterococcus 1 incubated for 16 hrs by agar dilution method
[10] = test system: Staphylococcus aureus; test: Antibacterial activity against Methicillin-resistant Staphylococcus aureus incubated for 24 hrs by broth microdilution method
[11] = test system: Staphylococcus aureus; test: Antibacterial activity against Methicillin-resistant Staphylococcus aureus ATCC 51599-2 incubated for 18 to 24 hrs by CLSI-based microbroth dilution method; settings: time 18-24 hrs
[12] = test system: Staphylococcus aureus; test: Antibacterial activity against Methicillin-resistant Staphylococcus aureus ATCC 510019 incubated for 18 to 24 hrs by CLSI-based microbroth dilution method; settings: time 18-24 hrs
[13] = test system: Staphylococcus aureus; test: Antibacterial activity against Methicillin-resistant Staphylococcus aureus ATCC 51345 incubated for 18 to 24 hrs by CLSI-based microbroth dilution method; settings: time 18-24 hrs
[14] = test system: Staphylococcus aureus; test: Antibacterial activity against Methicillin-resistant Staphylococcus aureus ATCC 51033 incubated for 18 to 24 hrs by CLSI-based microbroth dilution method; settings: time 18-24 hrs
[15] = test system: Staphylococcus aureus; test: Antibacterial activity against Methicillin-resistant Staphylococcus aureus ATCC 52056 incubated for 18 to 24 hrs by CLSI-based microbroth dilution method; settings: time 18-24 hrs
[16] = test system: Staphylococcus aureus; test: Antibacterial activity against Methicillin-resistant Staphylococcus aureus ATCC 52351-2 incubated for 18 to 24 hrs by CLSI-based microbroth dilution method; settings: time 18-24 hrs
[17] = test system: Staphylococcus aureus; test: Antibacterial activity against Methicillin-resistant Staphylococcus aureus ATCC 60202 incubated for 18 to 24 hrs by CLSI-based microbroth dilution method; settings: time 18-24 hrs
[18] = test system: Staphylococcus aureus; test: Antibacterial activity against Methicillin-resistant Staphylococcus aureus ATCC 405055 incubated for 18 to 24 hrs by CLSI-based microbroth dilution method; settings: time 18-24 hrs
[19] = test system: Staphylococcus aureus; test: Antibacterial activity against Methicillin-resistant Staphylococcus aureus ATCC 43300 incubated for 18 to 24 hrs by CLSI-based microbroth dilution method; settings: time 18-24 hrs

## O=C(c1ccccc1)N1CCN(c2ccc(N3C[C@H](Cn4ccnn4)OC3=O)cc2F)CC1
[1]
  MIC: 0.25 mg/L (≈ 0.555 µM)

## CC(C)NC(=N)c1ccc2[nH]c(-c3ccc(OCc4cn(-c5ccccc5Cl)nn4)cc3)nc2c1
[2]
  MIC: 8 mg/L (≈ 16.5 µM)
[3]
  Ratio: 0.125

## NC[C@H]1O[C@@H](O[C@@H](Cc2cn(CCCCCCCCCCOc3ccc(C(=O)c4ccccc4)cc3)nn2)[C@H]2O[C@@H](n3ccc(=O)[nH]c3=O)[C@H](O)[C@@H]2O)[C@H](O)[C@@H]1O.O=C(O)C(F)(F)F
[4]
  MIC: 8 mg/L
[5]
  Ratio: 0.5

## CC(C)C[C@H](C(=O)N[C@@H]1Cc2ccc(c(Cl)c2)Oc2cc3cc(c2O[C@@H]2O[C@H](CO)[C@@H](O)[C@H](O)[C@H]2O[C@H]2C[C@](C)(NCCCCCCCc4ccccc4)[C@H](O)[C@H](C)O2)Oc2ccc(cc2Cl)[C@@H](O)[C@@H]2NC(=O)[C@H](NC(=O)[C@@H]3NC(=O)[C@H](CC(=O)O)NC1=O)c1ccc(O)c(c1)-c1c(O)cc(O)cc1[C@H](C(=O)O)NC2=O)n1cc(COc2ccc(-c3ccc(OCc4cn([C@H](CC(C)C)C(=O)N[C@@H]5Cc6ccc(c(Cl)c6)Oc6cc7cc(c6O[C@@H]6O[C@H](CO)[C@@H](O)[C@H](O)[C@H]6O[C@H]6C[C@](C)(NCCCCCCCc8ccccc8)[C@H](O)[C@H](C)O6)Oc6ccc(cc6Cl)[C@@H](O)[C@@H]6NC(=O)[C@H](NC(=O)[C@@H]7NC(=O)[C@H](CC(=O)O)NC5=O)c5ccc(O)c(c5)-c5c(O)cc(O)cc5[C@H](C(=O)O)NC6=O)nn4)cc3)cc2)nn1
[6]
  MIC: 12.5 mg/L (≈ 3.57 µM)
[7]
  MIC: 12.5 mg/L (≈ 3.57 µM)
[8]
  MIC: 25 mg/L (≈ 7.14 µM)

## CC(C)C[C@@H](N)C(=O)N[C@H]1C(=O)N[C@@H](CC(N)=O)C(=O)N[C@H]2C(=O)N[C@H]3C(=O)N[C@H](C(=O)N[C@H](C(=O)O)c4cc(O)cc(O)c4-c4cc3ccc4O)[C@H](O)c3ccc(c(Cl)c3)Oc3cc2cc(c3O[C@@H]2O[C@H](CO)[C@@H](O)[C@H](O)[C@H]2O[C@H]2C[C@](C)(N)[C@H](O)[C@H](C)O2)Oc2ccc(cc2Cl)[C@H]1O
[8]
  MIC: > 50 mg/L
[9]
  MIC: > 50 mg/L

## O=C(N[C@H](CO)[C@H](O)c1ccc([N+](=O)[O-])cc1)C(Cl)Cl [CHLORAMPHENICOL]
[10]
  MIC: 11.6 mg/L (≈ 35.9 µM)

## Cc1nc(C)c(COc2ccc(N3C[C@H](Cn4ccnn4)OC3=O)cc2)nc1C
[11]
  MIC: 4 mg/L (≈ 10.1 µM)
[12]
  MIC: 4 mg/L (≈ 10.1 µM)
[13]
  MIC: 4 mg/L (≈ 10.1 µM)
[14]
  MIC: 4 mg/L (≈ 10.1 µM)
[15]
  MIC: 4 mg/L (≈ 10.1 µM)
[16]
  MIC: 4 mg/L (≈ 10.1 µM)
[17]
  MIC: 4 mg/L (≈ 10.1 µM)
[18]
  MIC: 4 mg/L (≈ 10.1 µM)
[19]
  MIC: 4 mg/L (≈ 10.1 µM)

## CC(C)C[C@H](C(=O)N[C@@H]1Cc2ccc(c(Cl)c2)Oc2cc3cc(c2O[C@@H]2O[C@H](CO)[C@@H](O)[C@H](O)[C@H]2O[C@H]2C[C@](C)(NCCCCCCCc4ccccc4)[C@H](O)[C@H](C)O2)Oc2ccc(cc2Cl)[C@@H](O)[C@@H]2NC(=O)[C@H](NC(=O)[C@@H]3NC(=O)[C@H](CC(=O)O)NC1=O)c1ccc(O)c(c1)-c1c(O)cc(O)cc1[C@H](C(=O)O)NC2=O)n1cc(COCCCCCCOCc2cn([C@H](CC(C)C)C(=O)N[C@@H]3Cc4ccc(c(Cl)c4)Oc4cc5cc(c4O[C@@H]4O[C@H](CO)[C@@H](O)[C@H](O)[C@H]4O[C@H]4C[C@](C)(NCCCCCCCc6ccccc6)[C@H](O)[C@H](C)O4)Oc4ccc(cc4Cl)[C@@H](O)[C@@H]4NC(=O)[C@H](NC(=O)[C@@H]5NC(=O)[C@H](CC(=O)O)NC3=O)c3ccc(O)c(c3)-c3c(O)cc(O)cc3[C@H](C(=O)O)NC4=O)nn2)nn1
[6]
  MIC: 12.5 mg/L (≈ 3.64 µM)
[7]
  MIC: 12.5 mg/L (≈ 3.64 µM)
[8]
  MIC: 12.5 mg/L (≈ 3.64 µM)
[9]
  MIC: 25 mg/L (≈ 7.28 µM)

## CC(C)C[C@H](C(=O)N[C@@H]1Cc2ccc(c(Cl)c2)Oc2cc3cc(c2O[C@@H]2O[C@H](CO)[C@@H](O)[C@H](O)[C@H]2O[C@H]2C[C@](C)(NCCCCCCCc4ccccc4)[C@H](O)[C@H](C)O2)Oc2ccc(cc2Cl)[C@@H](O)[C@@H]2NC(=O)[C@H](NC(=O)[C@@H]3NC(=O)[C@H](CC(=O)O)NC1=O)c1ccc(O)c(c1)-c1c(O)cc(O)cc1[C@H](C(=O)O)NC2=O)n1cc(COCCOCCOCc2cn([C@H](CC(C)C)C(=O)N[C@@H]3Cc4ccc(c(Cl)c4)Oc4cc5cc(c4O[C@@H]4O[C@H](CO)[C@@H](O)[C@H](O)[C@H]4O[C@H]4C[C@](C)(NCCCCCCCc6ccccc6)[C@H](O)[C@H](C)O4)Oc4ccc(cc4Cl)[C@@H](O)[C@@H]4NC(=O)[C@H](NC(=O)[C@@H]5NC(=O)[C@H](CC(=O)O)NC3=O)c3ccc(O)c(c3)-c3c(O)cc(O)cc3[C@H](C(=O)O)NC4=O)nn2)nn1
[6]
  MIC: 6.25 mg/L (≈ 1.83 µM)
[7]
  MIC: 12.5 mg/L (≈ 3.65 µM)
[8]
  MIC: 12.5 mg/L (≈ 3.65 µM)
[9]
  MIC: 25 mg/L (≈ 7.3 µM)

## Cc1nc(C)c(COc2ccc(N3C[C@H](Cn4ccnn4)OC3=O)cc2F)nc1C
[11]
  MIC: 4 mg/L (≈ 9.7 µM)
[12]
  MIC: 4 mg/L (≈ 9.7 µM)
[13]
  MIC: 4 mg/L (≈ 9.7 µM)
[14]
  MIC: 4 mg/L (≈ 9.7 µM)
[15]
  MIC: 4 mg/L (≈ 9.7 µM)
[16]
  MIC: 4 mg/L (≈ 9.7 µM)
[17]
  MIC: 4 mg/L (≈ 9.7 µM)
[18]
  MIC: 4 mg/L (≈ 9.7 µM)
[19]
  MIC: 4 mg/L (≈ 9.7 µM)

## O=C(C(Cl)Cl)N1CCN(c2ccc(N3C[C@H](Cn4ccnn4)OC3=O)cc2F)CC1
[1]
  MIC: 0.25 mg/L (≈ 0.547 µM)

## CC(C)NC(=N)c1ccc2[nH]c(-c3ccc(OCc4cn(-c5ccccc5)nn4)cc3)nc2c1
[2]
  MIC: 8 mg/L (≈ 17.7 µM)
[3]
  Ratio: 0.125

## NC[C@H]1O[C@@H](O[C@@H](Cn2cc(CCCCCCCCCCOc3ccc(C(=O)c4ccccc4)cc3)nn2)[C@H]2O[C@@H](n3ccc(=O)[nH]c3=O)[C@H](O)[C@@H]2O)[C@H](O)[C@@H]1O.O=C(O)C(F)(F)F
[4]
  MIC: 8 mg/L
[5]
  Ratio: 1
